Results on 22 molecules are retold here after patent US10385065B2, “Antibacterial compounds” (priority 2014, dated 2019).

Assay type in all cases: cell-based
Assay [1] relates to Escherichia coli ATCC 25922. Briefly: MIC, broth microdilution, E. coli ATCC 25922. Conditions: ATCC25922, Table 1, wild type strain.
The subject of assay [2] is Enterococcus faecium ATCC 19434. The experiment in a line: MIC, E. faecium ATCC 19434. The note with it: ATCC19434, Table 2.
Assay [3] concerns Haemophilus influenzae ATCC 49247. Briefly: MIC, H. influenzae ATCC 49247. The note with it: ATCC49247, Table 4.
Assay [4] concerns Staphylococcus aureus ATCC 29213. The experiment in a line: MIC, broth microdilution, S. aureus ATCC 29213. On the technique in general: Broth dilution looks for growth in wells or tubes with falling amounts of substance.
The mark [5] stands for this setting: ATCC29213, Table 1, wild type strain, read-out: MIC S. aureus ATCC 29213.
[6] abbreviates: ATCC 29213 / MSSA, Table 2, read-out: MIC S. aureus (MSSA) ATCC 29213 CLSI control strain.

≈ marks a conversion by molar mass, not a printed value. Read-outs that look alike come from different tables or passages of the source.

As for `O=c1c2ncoc2c2cc(F)c(-c3cc(F)c(CO)cc3F)cc2n1C1CC1` [Compound 68, 5-cyclopropyl-7-[2,5-difluoro-4-(hydroxymethyl)phenyl]-8-fluoro-oxazolo[4,5-c]quinolin-4-one], the MIC in assay [1] was 1 to 10 µg/mL (≈ 2.59 to 25.9 µM); in assay [2], above 100 µg/mL; in assay [3], below 1 µg/mL; in assay [4] (setting [5]) it was below 1 µg/mL; in assay [4] (setting [6]), below 1 µg/mL.
Regarding `Nc1ccc(-c2cc3c(cc2F)c2ocnc2c(=O)n3C2CC2)cn1` [Compound 70, 7-(6-amino-3-pyridyl)-5-cyclopropyl-8-fluoro-oxazolo[4,5-c]quinolin-4-one], the MIC is above 100 µg/mL in assay [1]; above 100 µg/mL in assay [2]; above 100 µg/mL in assay [3]; 10 to 100 µg/mL (≈ 29.7 to 297 µM) in assay [4] (setting [5]); 10 to 100 µg/mL (≈ 29.7 to 297 µM) in assay [4] (setting [6]).
Take `Cc1nc2c(=O)n(C3CC3)c3cc(-c4ccc(C=O)cc4)c(F)cc3c2o1` [Compound 72, 4-(5-cyclopropyl-8-fluoro-2-methyl-4-oxo-oxazolo[4,5-c]quinolin-7-yl)benzaldehyde]: the MIC is above 100 µg/mL in assay [1]; above 100 µg/mL in assay [2]; 1 to 10 µg/mL (≈ 2.76 to 27.6 µM) in assay [3]; 10 to 100 µg/mL (≈ 27.6 to 276 µM) in assay [4] (setting [5]); 10 to 100 µg/mL (≈ 27.6 to 276 µM) in assay [4] (setting [6]).
`Cc1nc2c(=O)n(C3CC3)c3cc(-c4ccc5[nH]ncc5c4)c(F)cc3c2o1` [Compound 73, 5-cyclopropyl-8-fluoro-7-(1H-indazol-5-yl)-2-methyl-oxazolo[4,5-c]quinolin-4-one]: the MIC in assay [1] was above 100 µg/mL; in assay [2], above 100 µg/mL; in assay [3], 1 to 10 µg/mL (≈ 2.67 to 26.7 µM); in assay [4] (setting [5]) it was below 1 µg/mL; in assay [4] (setting [6]), below 1 µg/mL.
Regarding `Cc1nc2c(=O)n(C3CC3)c3cc(-c4ccncc4F)c(F)cc3c2o1` [Compound 74, 5-cyclopropyl-8-fluoro-7-(3-fluoro-4-pyridyl)-2-methyl-oxazolo[4,5-c]quinolin-4-one], the MIC is 10 to 100 µg/mL (≈ 28.3 to 283 µM) in assay [1]; above 100 µg/mL in assay [2]; 1 to 10 µg/mL (≈ 2.83 to 28.3 µM) in assay [3]; 10 to 100 µg/mL (≈ 28.3 to 283 µM) in assay [4] (setting [5]); 10 to 100 µg/mL (≈ 28.3 to 283 µM) in assay [4] (setting [6]).
On to `Cc1nc2c(=O)n(C3CC3)c3cc(-c4ccncc4)c(F)cc3c2o1` [Compound 75, 5-cyclopropyl-8-fluoro-2-methyl-7-(4-pyridyl)oxazolo[4,5-c]quinolin-4-one], for which the MIC in assay [1] is 10 to 100 µg/mL (≈ 29.8 to 298 µM); in assay [2] it was above 100 µg/mL; in assay [3] it was 1 to 10 µg/mL (≈ 2.98 to 29.8 µM); in assay [4] (setting [5]) it was 1 to 10 µg/mL (≈ 2.98 to 29.8 µM); in assay [4] (setting [6]) it was 1 to 10 µg/mL (≈ 2.98 to 29.8 µM).
Take `CC(=O)c1cc(F)c(-c2cc3c(cc2F)c2oc(C)nc2c(=O)n3C2CC2)cc1F` [Compound 77, 7-(4-acetyl-2,5-difluoro-phenyl)-5-cyclopropyl-8-fluoro-2-methyl-oxazolo[4,5-c]quinolin-4-one]: the MIC in assay [1] is above 100 µg/mL; in assay [2], above 100 µg/mL; in assay [3], above 100 µg/mL; in assay [4] (setting [5]) it was 10 to 100 µg/mL (≈ 24.3 to 243 µM); in assay [4] (setting [6]), 10 to 100 µg/mL (≈ 24.3 to 243 µM).
For `Cc1nc2c(=O)n(C3CC3)c3cc(-c4cc(F)c(C(N)=O)cc4F)c(F)cc3c2o1` [Compound 78, 4-(5-cyclopropyl-8-fluoro-2-methyl-4-oxo-oxazolo[4,5-c]quinolin-7-yl)-2,5-difluoro-benzamide], the MIC in assay [1] was above 100 µg/mL; in assay [2], above 100 µg/mL; in assay [3], 10 to 100 µg/mL (≈ 24.2 to 242 µM); in assay [4] (setting [5]), above 100 µg/mL; in assay [4] (setting [6]), above 100 µg/mL.
In the case of `NC1C2CN(c3nc4c(cc3F)c3ocnc3c(=O)n4C3CC3)CC12` (centres unmarked) [Compound 82, 7-(6-amino-3-azabicyclo[3.1.0]hexan-3-yl)-5-cyclopropyl-8-fluoro-oxazolo[4,5-c][1,8]naphthyridin-4-one], the MIC in assay [1] is 1 to 10 µg/mL (≈ 2.93 to 29.3 µM); in assay [2], above 100 µg/mL; in assay [3] it was 10 to 100 µg/mL (≈ 29.3 to 293 µM); in assay [4] (setting [5]), 10 to 100 µg/mL (≈ 29.3 to 293 µM); in assay [4] (setting [6]) it was 10 to 100 µg/mL (≈ 29.3 to 293 µM).
In the case of `CN(C)C1CCN(c2nc3c(cc2F)c2ocnc2c(=O)n3C2CC2)C1` (centres unmarked) [Compound 83, 5-cyclopropyl-7-[3-(dimethylamino)pyrrolidin-1-yl]-8-fluoro-oxazolo[4,5-c][1,8]naphthyridin-4-one], the MIC is 1 to 10 µg/mL (≈ 2.8 to 28 µM) in assay [1]; above 100 µg/mL in assay [2]; 10 to 100 µg/mL (≈ 28 to 280 µM) in assay [3]; 10 to 100 µg/mL (≈ 28 to 280 µM) in assay [4] (setting [5]); 10 to 100 µg/mL (≈ 28 to 280 µM) in assay [4] (setting [6]).
For the molecule `Nc1cc(-c2nc3c(cc2F)c2ocnc2c(=O)n3C2CC2)c(F)cc1F` [Compound 85, 7-(5-amino-2,4-difluorophenyl)-5-cyclopropyl-8-fluoro-oxazolo[4,5-c]1,8-naphthyridin-4-one], the MIC was 10 to 100 µg/mL (≈ 26.9 to 269 µM) in assay [1]; above 100 µg/mL in assay [2]; 1 to 10 µg/mL (≈ 2.69 to 26.9 µM) in assay [3]; 10 to 100 µg/mL (≈ 26.9 to 269 µM) in assay [4] (setting [5]); 10 to 100 µg/mL (≈ 26.9 to 269 µM) in assay [4] (setting [6]).
Turning to `Cc1nc2c(=O)n(C3CC3)c3nc(-c4cc(F)c(N)cc4F)c(F)cc3c2o1` [Compound 86, 7-(4-amino-2,5-difluorophenyl)-5-cyclopropyl-8-fluoro-2-methyl-oxazolo[4,5-c]1,8-naphthyridin-4-one], the MIC in assay [1] is above 100 µg/mL; in assay [2] it was above 100 µg/mL; in assay [3], 10 to 100 µg/mL (≈ 25.9 to 259 µM); in assay [4] (setting [5]) it was above 100 µg/mL; in assay [4] (setting [6]), 10 to 100 µg/mL (≈ 25.9 to 259 µM).
Regarding `Cc1nc2c(=O)n(C3CC3)c3nc(-c4ccc5[nH]ncc5c4)c(F)cc3c2o1` [Compound 87], the MIC in assay [1] is above 100 µg/mL; in assay [2], above 100 µg/mL; in assay [3], 10 to 100 µg/mL (≈ 26.6 to 266 µM); in assay [4] (setting [5]), above 100 µg/mL; in assay [4] (setting [6]), 10 to 100 µg/mL (≈ 26.6 to 266 µM).
For `Cc1nc2c(=O)n3c4c(c(N5CCN(C)CC5)c(F)cc4c2o1)OC[C@@H]3C` [Compound 91], the MIC is 10 to 100 µg/mL (≈ 26.9 to 269 µM) in assay [1]; above 100 µg/mL in assay [2]; 1 to 10 µg/mL (≈ 2.69 to 26.9 µM) in assay [3]; 10 to 100 µg/mL (≈ 26.9 to 269 µM) in assay [4] (setting [5]); 10 to 100 µg/mL (≈ 26.9 to 269 µM) in assay [4] (setting [6]).
Consider `C[C@H]1COc2c(-c3cnc(N)nc3)ccc3c4ocnc4c(=O)n1c23` [Compound 94, (2S)-6-(2-aminopyrimidin-5-yl)-2-methyl-4,11-dioxa-1,13-diazatetracyclo[7.6.1.0^5,^16.0^10,^14]hexadeca-5(16),6,8,10(14),12-pentaen-15-one], for which the MIC in assay [1] lay within 10 to 100 µg/mL (≈ 29.8 to 298 µM); in assay [2], 10 to 100 µg/mL (≈ 29.8 to 298 µM); in assay [3], 1 to 10 µg/mL (≈ 2.98 to 29.8 µM); in assay [4] (setting [5]), 1 to 10 µg/mL (≈ 2.98 to 29.8 µM); in assay [4] (setting [6]) it was 1 to 10 µg/mL (≈ 2.98 to 29.8 µM).
As for `COc1c(N2CCC(N)C2)c(F)cc2c3ocnc3c(=O)n(C3CC3)c12` (centres unmarked) [Compound 97, 7-(3-aminopyrrolidin-1-yl)-5-cyclopropyl-8-fluoro-6-methoxyoxazolo[4,5-c]quinolin-4-one], the MIC in assay [1] is 1 to 10 µg/mL (≈ 2.79 to 27.9 µM); in assay [2], 10 to 100 µg/mL (≈ 27.9 to 279 µM); in assay [3], 1 to 10 µg/mL (≈ 2.79 to 27.9 µM); in assay [4] (setting [5]) it was below 1 µg/mL; in assay [4] (setting [6]) it was below 1 µg/mL.
As for `Cc1c(-c2ccc(C(=O)O)cc2)ccc2c3oc(CN)nc3c(=O)n(C3CC3)c12` [Compound 102, 4-[2-(aminomethyl)-5-cyclopropyl-6-methyl-4-oxo-oxazolo[4,5-c]quinolin-7-yl]benzoic acid], the MIC is above 100 µg/mL in assay [1]; above 100 µg/mL in assay [2]; 10 to 100 µg/mL (≈ 25.7 to 257 µM) in assay [3]; 1 to 10 µg/mL (≈ 2.57 to 25.7 µM) in assay [4] (setting [5]); 1 to 10 µg/mL (≈ 2.57 to 25.7 µM) in assay [4] (setting [6]).
Consider `Cc1c(-c2cnc(N)nc2)ccc2c3oc(CN)nc3c(=O)n(C3CC3)c12` [Compound 103, 2-(aminomethyl)-7-(2-aminopyrimidin-5-yl)-5-cyclopropyl-6-methyl-oxazolo[4,5-c]quinolin-4-one], for which the MIC in assay [1] was 1 to 10 µg/mL (≈ 2.76 to 27.6 µM); in assay [2] it was 10 to 100 µg/mL (≈ 27.6 to 276 µM); in assay [3], below 1 µg/mL; in assay [4] (setting [5]) it was 1 to 10 µg/mL (≈ 2.76 to 27.6 µM); in assay [4] (setting [6]), 1 to 10 µg/mL (≈ 2.76 to 27.6 µM).
Regarding `CCn1c(=O)c2ncoc2c2cc(F)c(-c3cc(F)c(N)cc3F)c(C)c21` [Compound 104, 7-(4-amino-2,5-difluoro-phenyl)-5-ethyl-8-fluoro-6-methyl-oxazolo[4,5-c]quinolin-4-one], the MIC is above 100 µg/mL in assay [1]; 10 to 100 µg/mL (≈ 26.8 to 268 µM) in assay [2]; 10 to 100 µg/mL (≈ 26.8 to 268 µM) in assay [3]; 1 to 10 µg/mL (≈ 2.68 to 26.8 µM) in assay [4] (setting [5]); 1 to 10 µg/mL (≈ 2.68 to 26.8 µM) in assay [4] (setting [6]).
With `CCn1c(=O)c2ncoc2c2cc(F)c(-c3cc(N)c(F)cc3F)c(C)c21` [Compound 105, 7-(5-amino-2,4-difluoro-phenyl)-5-ethyl-8-fluoro-6-methyl-oxazolo[4,5-c]quinolin-4-one], the MIC in assay [1], in assay [2], in assay [3], in assay [4] (setting [5]) and in assay [4] (setting [6]) was 10 to 100 µg/mL (≈ 26.8 to 268 µM) throughout.
As for `CCn1c(=O)c2ncoc2c2cc(F)c(-c3ccc(N)nc3)c(C)c21` [Compound 106, 7-(6-amino-3-pyridyl)-5-ethyl-8-fluoro-6-methyl-oxazolo[4,5-c]quinolin-4-one], the MIC in assay [1] is above 100 µg/mL; in assay [2] it was above 100 µg/mL; in assay [3], 10 to 100 µg/mL (≈ 29.6 to 296 µM); in assay [4] (setting [5]), 10 to 100 µg/mL (≈ 29.6 to 296 µM); in assay [4] (setting [6]), 10 to 100 µg/mL (≈ 29.6 to 296 µM).
Turning to `CCn1c(=O)c2ncoc2c2cc(F)c(-c3ccc(N)c(F)c3)c(C)c21` [Compound 107, 7-(4-amino-3-fluoro-phenyl)-5-ethyl-8-fluoro-6-methyl-oxazolo[4,5-c]quinolin-4-one], the MIC was above 100 µg/mL in assay [1]; above 100 µg/mL in assay [2]; above 100 µg/mL in assay [3]; 10 to 100 µg/mL (≈ 28.1 to 281 µM) in assay [4] (setting [5]); 10 to 100 µg/mL (≈ 28.1 to 281 µM) in assay [4] (setting [6]).
